The values below come from ChEMBL document CHEMBL3576846, “Privileged Structures Meet Human T-Cell Leukemia Virus-1 (HTLV-1): C2-Symmetric 3,4-Disubstituted Pyrrolidines as Nonpeptidic HTLV-1 Protease Inhibitors” (J Med Chem, 2015).

What is called Ki is a measure of affinity in units of concentration, obtained from inhibition or displacement. A low value points to tighter binding.

The structures appear in SMILES notation. A value given as a limit tells only on which side of the number the result lay.

A short description of this experiment: Inhibition of HTLV-1 protease using (RE(Edans)TKVLVVQPK(Dabsyl)R) as substrate by fluorescence assay. The arrangement: species or system Human T-cell leukemia virus type I.
On to `O=S(=O)(c1ccccc1)N(Cc1ccc(C(F)(F)F)cc1)[C@H]1CNC[C@@H]1N(Cc1ccc(C(F)(F)F)cc1)S(=O)(=O)c1ccccc1`, for which the Ki is greater than 250 µM.
In turn, `Nc1ccc(S(=O)(=O)N(Cc2ccccc2)[C@H]2CNC[C@@H]2N(Cc2ccccc2)S(=O)(=O)c2ccc(N)cc2)cc1` gave a Ki of 0.015 µM. This counts as double-digit nanomolar.
Under `CC(C)=CCN([C@H]1CNC[C@@H]1N(CC=C(C)C)S(=O)(=O)c1ccccc1)S(=O)(=O)c1ccccc1` stands 11.6 µM.
With `O=[N+]([O-])c1ccc(S(=O)(=O)N(Cc2ccccc2)[C@H]2CNC[C@@H]2N(Cc2ccccc2)S(=O)(=O)c2ccc([N+](=O)[O-])cc2)cc1`, the Ki came to 7.9 µM. This Ki and that of the compound before are within 1.5-fold of each other.
To `C=CCN([C@H]1CNC[C@@H]1N(CC=C)S(=O)(=O)c1ccccc1)S(=O)(=O)c1ccccc1` belongs 172 µM.
The compound `O=S(=O)(c1ccccc1)N(Cc1ccc(I)cc1)[C@H]1CNC[C@@H]1N(Cc1ccc(I)cc1)S(=O)(=O)c1ccccc1` had a Ki greater than 200 µM.
For `O=S(=O)(c1ccccc1Cl)N(Cc1ccccc1)[C@H]1CNC[C@@H]1N(Cc1ccccc1)S(=O)(=O)c1ccccc1Cl`, the Ki worked out at 2.4 µM.
Consider `Cc1ccccc1S(=O)(=O)N(Cc1ccccc1)[C@H]1CNC[C@@H]1N(Cc1ccccc1)S(=O)(=O)c1ccccc1C`, for which the Ki was 2.6 µM.
With `O=S(=O)(c1ccccc1)N(Cc1ccccc1)[C@H]1CNC[C@@H]1N(Cc1ccccc1)S(=O)(=O)c1ccccc1`, the Ki turned out to be 2 µM.
Consider `C=C(C)CN([C@H]1CNC[C@@H]1N(CC(=C)C)S(=O)(=O)c1ccccc1)S(=O)(=O)c1ccccc1`, for which the affinity corresponds to a Ki of 17.8 µM.
